Test results from PubChem BioAssay AID1117339.
Activity calls are given as the source filed them. How the calls were made is not given here.

Tested on: HCT116 viability, CellTiter-Glo, GSK3B-pretreated
Assay: HCT116 cell viability decrease, GSK3B pretreatment – CellTiter-Glo, IC50, dose response (AID 1117339)

| SMILES | IC50 |
| --- | --- |
| Cc1ccc([N+](=O)[O-])[c]2c1[O][Hg]2 | 2.22 µM (inactive) |
| OCCN1CCN(CC/C=C2/c3ccccc3Sc3ccc(C(F)(F)F)cc32)CC1 | 2.89 µM |
| CCCCCCCCCCCCCC[N+](C)(C)C | 0.754 µM |
